Structures can show the parent of a compound that is named as a salt.
How the values were obtained:
human eosinophils [1] = assay: Inhibition of histamine-induced chemotaxis of human eosinophils (eosinophil pre-incubation method); type: cell-based; conditions: for effect on histamine-induced chemotaxis: at concentrations of 10 micromolar; for IC50: Homo sapiens, Eosinophil, eosinophils pre-incubated with antagonist, concentration related
Procedure: (§1) A further functional assay for the histamine H4 receptor determines the ability of histamine to induce chemotaxis in eosinophils isolated from human blood. In this assay cells are primed with interleukin 5 and the ability of histaminergic ligands to promote migration of eosinophils across a permeable membrane is studied. The number of cells migrating in a defined period is then counted. Agonist potencies are expressed as EC50 values. Antagonists can also be studied by pre-incubating eosinophils with the compound and then assessing the inhibitory effects on histamine (or other suitable ligand) on eosinophil chemotaxis. The experiments can be performed in one of two ways. Firstly, by increasing the concentration of antagonist versus fixed concentration of agonist and calculating the IC50 for each antagonist. Secondly, by increasing the concentration of antagonist versus increasing the concentration of agonist and expressing the antagonist potency as a pkb or pA2 value, as appropriate.

human eosinophils [2] = assay: Promotion of chemotaxis of interleukin 5 primed human isolated eosinophils (agonist mode); type: cell-based; conditions: interleukin 5 priming; for promotion of chemotaxis of human eosinophils: concentrations of from 10^−4 to 10^−5 M
Procedure: as §1

histamine H4 receptor = molecular target: T1, histamine H4 receptor (Homo sapiens, UniProt Q9H3N8); assay: Histamine H4 receptor radioligand binding, HEK293 cell line membranes
T1 construct: expressed in transfected cells; host or cells: HEK293
Text: The cDNA for the human histamine H3 and H4 receptor can be expressed in a suitable cell line such as HEK293 or CHO. In addition membranes can be prepared from tissues or cells which naturally express either the histamine H3 and/or H4 receptor. Affinity can be assessed at either receptor by assessing the ability of ligands to inhibit the binding of a suitable radioactively labelled ligand to membranes containing either the histamine H3 or H4 receptor. The potency of compounds is compared by calculating their pKI values.

T1 sequence (Q9H3N8 whole entry): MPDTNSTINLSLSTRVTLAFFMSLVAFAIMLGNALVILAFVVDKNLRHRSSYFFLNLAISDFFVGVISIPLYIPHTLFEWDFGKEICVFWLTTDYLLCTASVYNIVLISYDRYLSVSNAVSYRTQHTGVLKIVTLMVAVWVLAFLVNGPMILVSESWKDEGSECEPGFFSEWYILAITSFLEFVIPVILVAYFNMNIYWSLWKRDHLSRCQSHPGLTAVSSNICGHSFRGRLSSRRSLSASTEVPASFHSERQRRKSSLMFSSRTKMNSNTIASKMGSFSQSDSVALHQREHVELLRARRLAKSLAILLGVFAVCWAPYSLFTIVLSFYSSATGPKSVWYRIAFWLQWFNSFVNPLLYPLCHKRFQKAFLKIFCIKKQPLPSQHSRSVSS

COc1ccc(CN(CCN(C)C)c2ccccn2)cc1 [mepyramine maleate]
effect on histamine-induced chemotaxis (human eosinophils [1]): little or no effect

CN(C)CCCSC(=N)N [dimaprit]
promotion of chemotaxis of human eosinophils (human eosinophils [2]): did not promote chemotaxis

CN/C(=N/CCSCc1nc[nH]c1C)NC#N [cimetidine]
effect on histamine-induced chemotaxis (human eosinophils [1]): little or no effect

N=C(N)SCCc1cnc[nH]1 [imetit]
promotion of chemotaxis of human eosinophils (human eosinophils [2]): did not promote chemotaxis

CC(CCCCC(=O)Nc1ccc(C(F)(F)F)cc1)NCCc1cnc[nH]1 (stereo not drawn) [HTMT]
promotion of chemotaxis of human eosinophils (human eosinophils [2]): did not promote chemotaxis

NC(=NCc1ccc(Cl)cc1)SCCCc1cnc[nH]1 [clobenpropit dihydrobromide]
IC50 (human eosinophils [1]): 1.5 µM

S=C(NC1CCCCC1)N1CCC(c2cnc[nH]2)CC1 [thioperamide maleate]
IC50 (human eosinophils [1]): 0.83 µM

NC(=NCc1ccc(Cl)cc1)SCCCc1cnc[nH]1 [Clobenpropit]
Ki (histamine H4 receptor): 0.00661 µM

NCCc1c[nH]cn1 [histamine]
promotion of chemotaxis of human isolated eosinophils (human eosinophils [2]; concentration range 10^−8 to 10^−5 M): promoted chemotaxis

Source: patent US20040138234A1, “Histamine receptor antagonists” (Pfizer Inc, priority 2001, published 2004)
